Where a SMILES comes first, the peptide text is derived from it. [ ]: non-standard residue; d: D form. Nle = CCCC[C@H](N)C(=O)O
Tests used:
Format in all cases: cell-based, human
[1] = test system: polyubiquitin-conjugated K- and N-Ras proteins; assay: IP/immunoblot of polyubiquitinated K- and N-Ras in transfected HEK293 cells after ALLN; conditions: ALLN treatment, IP with anti-Myc (FIG. 8A)
Procedure: To examine the possibility that K- and N-Ras proteins, similar to H-Ras, were subjected to polyubiquitination by proteasomal degradation, HEK293 cells were transfected with pcDNA3.1-H-Ras, pcDNA3.1-K-Ras, or pcDNA3.1-N-Ras with pCS4-3xFlag-Ub. Cells were treated with ALLN followed by IP with anti-Myc antibody and then immunoblotted with anti-Myc, -α-tubulin, or -Flag antibody. […] Therefore, we confirmed that H-, K-, N-Ras protein stability is regulated by polyubiquitin-dependent proteasomal degradation (FIG. 8A).

[2] = test system: phosphor-mimetic form of H-Ras; assay: Immunoblot of phospho-mimetic H-Ras level in transfected HEK293 cells after ALLN; conditions: ALLN for 12 hours, immunoblot (FIG. 5A lower panels)
Procedure: The protein expression level of the phosphorylation mimetic mutant is too low to be detected due to the severe destabilization; therefore, the proteasomal inhibitor, ALLN was treated to check for the accumulation of phosphor-mimetic form of H-Ras.
HEK293 cells were transfected with pcDNA3.1-H-Ras, pcDNA3.1-H-Ras-T144E/T148E, or pcDNA3.1-H-Ras-T144D/T148D. For indicated cases, ALLN was also administered for 12 hours. WCEs were immunoblotted with anti-Myc or -α-tubulin antibody (FIG. 5A lower panels). Treatment with ALLN increased the level of phosphor-mimetic form of H-Ras.

H-Ras [3] = assay: H-Ras polyubiquitination in HEK293 cells with Gsk3β or Axin siRNA; conditions: siRNA knockdown, ALLN 12 hours (FIG. 1C)
Procedure: Next, HEK293 cells were transfected with vector/nonspecific siRNA, pSUPER-Axin siRNA, pCS2-MT-Axin, siGsk3β, and/or pcDNA3.1-Gsk3β-V5 together with pcDNA3.1-H-Ras and pCS4-3xFlag-Ub for 24 hours and then treated with ALLN for 12 hours. IP and immunoblotting were performed as described above.

Pan-Ras = assay: Polyubiquitination of endogenous Pan-Ras in HEK293 cells with Gsk3β siRNA; conditions: siRNA knockdown, ALLN 12 hours (FIG. 1A)
Procedure: Full-length human H-Ras was isolated from a HEK293 cell cDNA library by PCR and then inserted into the pcDNA-3.1-myc vector using EcoRI and HindIII restriction sites. PcDNA3.1-Gsk3β-V5 was constructed in a similar method. HEK293 cells were transfected with vector/nonspecific siRNA, Gsk3β siRNA, or pcDNA3.1-Gsk3β-V5 together with pCS4-3xFlag-Ub for 24 hours and treated with the proteasome inhibitor ALLN for 12 hours. WCEs (whole cell extracts) were then immunoprecipitated (IP) with anti-Pan-Ras antibody to detect the polyubiquitinated H-Ras. WCEs were immunoblotted with antibodies to Gsk3β, Pan-Ras, Myc-H-Ras or α-tubulin. The siRNA sequences for Gsk3β NM_002093) were 5′-[…]-3′ (SEQ ID NO: 2) and 5′-[…]-3′ (SEQ ID NO: 3). The GFP siRNA used for the negative control was 5′-[…]-3′ (SEQ ID NO: 4) (synthesized by Samchully Pharmaceutical, Korea).

H-Ras [4] = assay: IP/immunoblot of H-Ras polyubiquitination and β-TrCP interaction in HEK293 cells with Wnt3a
Procedure: HEK293 cells were transfected the pcDNA3.1-H-Ras, pcDNA3.1-H-Ras-T144E/T148E, or pcDNA3.1-H-Ras-T144A/T148A with vector, pcDNA3.1-Gsk3β-V5, and/or pcDNA3.1-Flag-β-TrCP, together with pCS4-3xHA-Ub, treated with ALLN for 12 hours and/or Wnt3a for 2 hours as indicated, and prepared for IP with anti-Myc antibody. IPs and WCEs were immunoblotted with anti-HA, -β-TrCP or -α-tubulin antibody.

CCCC[C@@H](C=O)NC(=O)[C@H](CC(C)C)NC(=O)[C@H](CC(C)C)NC(C)=O [ALLN] (Ac-Leu-Leu-[Nle]-aldehyde)
accumulation of polyubiquitin-conjugated K- and N-Ras proteins [1]: accumulation of polyubiquitin-conjugated K- and N-Ras proteins | level of phosphor-mimetic form of H-Ras [2]: increased

Gsk3β siRNA: siRNA for Gsk3β: 5′-CACUGAUUAUACCUCUAGU-3′ and 5′-CACUGUAACAUAGUCCGAU-3′ (chemistry not given here)
H-Ras polyubiquitination (H-Ras [3]): decreased | levels of Pan-Ras polyubiquitination (Pan-Ras): decreased

B1: Wnt3a: recombinant Wnt3a (protein, UniProt P56704 19-352, looked up)
Protein Wnt-3a: SYPIWWSLAVGPQYSSLGSQPILCASIPGLVPKQLRFCRNYVEIMPSVAEGIKIGIQECQHQFRGRRWNCTTVHDSLAIFGPVLDKATRESAFVHAIASAGVAFAVTRSCAEGTAAICGCSSRHQGSPGKGWKWGGCSEDIEFGGMVSREFADARENRPDARSAMNRHNNEAGRQAIASHMHLKCKCHGLSGSCEVKTCWWSQPDFRAIGDFLKDKYDSASEMVVEKHRESRGWVETLRPRYTYFKVPTERDLVYYEASPNFCEPNPETGSFGTRDRTCNVSSHGIDGCDLLCCGRGHNARAERRREKCRCVFHWCCYVSCQECTRVYDVHTCK
polyubiquitination of phospho-deficient form of H-Ras (H-Ras [4]; Wnt3a, T144A/T148A H-Ras): not affected | polyubiquitination and interaction with β-TrCP of Wt H-Ras increased by Gsk3β transfection (H-Ras [4]; recombinant Wnt3a for 2 hours, Wt H-Ras): blocked
